Source: ChEMBL document CHEMBL5303573, “Mapping human microbiome drug metabolism by gut bacteria and their genes” (Nature, 2019)

Experiments:
[1] = The drug is tested on Bifidobacterium breve strain: DSM20213 for biotransformation. The drug concentrations were measured before and after a 12-h incubation by liquid-chromatography-coupled mass spectrometry (LC–MS); conditions: 2 µM
[2] = The drug is tested on Collinsella aerofaciens strain: ATCC25986 for biotransformation. The drug concentrations were measured before and after a 12-h incubation by liquid-chromatography-coupled mass spectrometry (LC–MS); conditions: 2 µM
[3] = The drug is tested on Bacteroides caccae strain: ATCC43185 for biotransformation. The drug concentrations were measured before and after a 12-h incubation by liquid-chromatography-coupled mass spectrometry (LC–MS); conditions: 2 µM
[4] = The drug is tested on Bacteroides dorei strain: DSM17855 for biotransformation. The drug concentrations were measured before and after a 12-h incubation by liquid-chromatography-coupled mass spectrometry (LC–MS); conditions: phocaeicola dorei, 2 µM
[5] = The drug is tested on Bacteroides finegoldii strain: DSM17565 for biotransformation. The drug concentrations were measured before and after a 12-h incubation by liquid-chromatography-coupled mass spectrometry (LC–MS); conditions: 2 µM
[6] = The drug is tested on Bacteroides sp. WH2 strain: WH2 for biotransformation. The drug concentrations were measured before and after a 12-h incubation by liquid-chromatography-coupled mass spectrometry (LC–MS); conditions: bacteroides sp. wh2, 12 h, 2 µM
[7] = The drug is tested on Anaerotruncus colihominis strain: DSM17241 for biotransformation. The drug concentrations were measured before and after a 12-h incubation by liquid-chromatography-coupled mass spectrometry (LC–MS); conditions: 2 µM
[8] = The drug is tested on Dorea formicigenerans strain: ATCC27755 for biotransformation. The drug concentrations were measured before and after a 12-h incubation by liquid-chromatography-coupled mass spectrometry (LC–MS); conditions: 2 µM
[9] = The drug is tested on Eubacterium ventriosum strain: ATCC27560 for biotransformation. The drug concentrations were measured before and after a 12-h incubation by liquid-chromatography-coupled mass spectrometry (LC–MS); type: ADME; design: dose 2 uM, timepoint 0 vs 12 hours; conditions: 2 µM
[10] = The drug is tested on Ruminococcus lactaris strain: ATCC29176 for biotransformation. The drug concentrations were measured before and after a 12-h incubation by liquid-chromatography-coupled mass spectrometry (LC–MS); conditions: 2 µM
[11] = The drug is tested on Ruminococcus torques strain: ATCC27756 for biotransformation. The drug concentrations were measured before and after a 12-h incubation by liquid-chromatography-coupled mass spectrometry (LC–MS); type: ADME; design: dose 2 uM, timepoint 0 vs 12 hours; conditions: 2 µM
[12] = The drug is tested on Escherichia coli strain: BW25113 for biotransformation. The drug concentrations were measured before and after a 12-h incubation by liquid-chromatography-coupled mass spectrometry (LC–MS); conditions: 2 µM
[13] = bifidobacterium adolescentis, 12 h, 2 µM
Description: The drug is tested on Bifidobacterium adolescentis strain: ATCC 15703 for biotransformation. The drug concentrations were measured before and after a 12-h incubation by liquid-chromatography-coupled mass spectrometry (LC–MS)

[14] = bacteroides fragilis, 12 h, 2 µM
Description: The drug is tested on Bacteroides fragilis strain: 3397 (T10) for biotransformation. The drug concentrations were measured before and after a 12-h incubation by liquid-chromatography-coupled mass spectrometry (LC–MS)

[15] = bacteroides intestinalis, 12 h, 2 µM
Description: The drug is tested on Bacteroides intestinalis strain: DSM17393 for biotransformation. The drug concentrations were measured before and after a 12-h incubation by liquid-chromatography-coupled mass spectrometry (LC–MS)

[16] = bacteroides thetaiotaomicron, 12 h, 2 µM
Description: The drug is tested on Bacteroides thetaiotaomicron strain: 7330 for biotransformation. The drug concentrations were measured before and after a 12-h incubation by liquid-chromatography-coupled mass spectrometry (LC–MS)

[17] = parabacteroides distasonis, 12 h, 2 µM
Description: The drug is tested on Parabacteroides distasonis strain: ATCC8503 for biotransformation. The drug concentrations were measured before and after a 12-h incubation by liquid-chromatography-coupled mass spectrometry (LC–MS)

[18] = roseburia intestinalis, 12 h, 2 µM
Description: The drug is tested on Roseburia intestinalis strain: L1-82 for biotransformation. The drug concentrations were measured before and after a 12-h incubation by liquid-chromatography-coupled mass spectrometry (LC–MS)

[19] = akkermansia muciniphila, 12 h, 2 µM
Description: The drug is tested on Akkermansia muciniphila strain: ATCC BAA-835 for biotransformation. The drug concentrations were measured before and after a 12-h incubation by liquid-chromatography-coupled mass spectrometry (LC–MS)

[20] = The drug is tested on Bacteroides coprophilus strain: DSM18228 for biotransformation. The drug concentrations were measured before and after a 12-h incubation by liquid-chromatography-coupled mass spectrometry (LC–MS); conditions: 2 µM

Compound	Bacterial Biotransformation [1]	Bacterial Biotransformation [2]	Bacterial Biotransformation [3]	Bacterial Biotransformation [4]	Bacterial Biotransformation [5]	Bacterial Biotransformation [6]	Bacterial Biotransformation [7]	Bacterial Biotransformation [8]	Bacterial Biotransformation [9]	Bacterial Biotransformation [10]	Bacterial Biotransformation [11]	Bacterial Biotransformation [12]	Bacterial Biotransformation [13]	Bacterial Biotransformation [14]	Bacterial Biotransformation [15]	Bacterial Biotransformation [16]	Bacterial Biotransformation [17]	Bacterial Biotransformation [18]	Bacterial Biotransformation [19]	Bacterial Biotransformation [20]
CN1CCc2cccc3c2[C@H]1Cc1ccc(O)c(O)c1-3 [APOMORPHINE]	Compound NOT metabolized	Compound NOT metabolized	Compound NOT metabolized	Compound NOT metabolized	Compound NOT metabolized	Compound NOT metabolized	Compound NOT metabolized	Compound NOT metabolized	Compound NOT metabolized	Compound NOT metabolized	Compound NOT metabolized	Compound NOT metabolized	Compound NOT metabolized	Compound NOT metabolized	Compound NOT metabolized	Compound NOT metabolized	Compound NOT metabolized	Compound NOT metabolized	Compound NOT metabolized	
CN1CCC(=C2c3ccccc3CCc3cccnc32)CC1.O=C(O)/C=C\C(=O)O.O=C(O)/C=C\C(=O)O [AZATADINE MALEATE]	Compound NOT metabolized	Compound NOT metabolized	Compound NOT metabolized		Compound NOT metabolized	Compound NOT metabolized	Compound NOT metabolized	Compound NOT metabolized	Compound NOT metabolized	Compound NOT metabolized	Compound NOT metabolized	Compound NOT metabolized	Compound NOT metabolized	Compound NOT metabolized	Compound NOT metabolized	Compound NOT metabolized	Compound NOT metabolized	Compound NOT metabolized	Compound NOT metabolized	Compound NOT metabolized
CCCC1O[C@@H]2C[C@H]3[C@@H]4CCC5=CC(=O)C=C[C@]5(C)[C@H]4[C@@H](O)C[C@]3(C)[C@]2(C(=O)CO)O1 (stereo partly specified) [BUDESONIDE]	Compound NOT metabolized	Compound NOT metabolized	Compound NOT metabolized	Compound metabolized	Compound NOT metabolized	Compound NOT metabolized	Compound NOT metabolized	Compound NOT metabolized	Compound NOT metabolized	Compound NOT metabolized	Compound NOT metabolized	Compound NOT metabolized	Compound NOT metabolized	Compound metabolized	Compound NOT metabolized	Compound NOT metabolized	Compound NOT metabolized		Compound NOT metabolized	Compound NOT metabolized
CC(NC(C)(C)C)C(=O)c1cccc(Cl)c1 (stereo unspecified) [BUPROPION]	Compound NOT metabolized		Compound NOT metabolized	Compound NOT metabolized	Compound NOT metabolized	Compound NOT metabolized	Compound NOT metabolized	Compound NOT metabolized		Compound NOT metabolized	Compound NOT metabolized	Compound metabolized		Compound NOT metabolized		Compound NOT metabolized	Compound NOT metabolized		Compound NOT metabolized	Compound metabolized
CCCC(C)(COC(N)=O)COC(=O)NC(C)C (stereo unspecified) [CARISOPRODOL]	Compound NOT metabolized	Compound metabolized	Compound NOT metabolized	Compound metabolized	Compound NOT metabolized	Compound NOT metabolized		Compound NOT metabolized	Compound metabolized		Compound NOT metabolized	Compound NOT metabolized		Compound metabolized	Compound NOT metabolized	Compound metabolized	Compound metabolized	Compound metabolized	Compound NOT metabolized	Compound metabolized
CCCc1nc(C(C)(C)O)c(C(=O)OCc2oc(=O)oc2C)n1Cc1ccc(-c2ccccc2-c2nnn[nH]2)cc1 [OLMESARTAN MEDOXOMIL]	Compound metabolized	Compound metabolized	Compound metabolized	Compound metabolized	Compound metabolized		Compound metabolized	Compound metabolized	Compound metabolized	Compound metabolized		Compound metabolized	Compound NOT metabolized	Compound metabolized	Compound metabolized	Compound metabolized	Compound metabolized		Compound metabolized	Compound metabolized
CC(=O)SCC(Cc1ccccc1)C(=O)NCC(=O)OCc1ccccc1 (stereo unspecified) [RACECADOTRIL]	Compound metabolized	Compound NOT metabolized		Compound metabolized	Compound metabolized	Compound metabolized			Compound metabolized	Compound metabolized		Compound NOT metabolized	Compound metabolized		Compound metabolized	Compound metabolized	Compound metabolized	Compound metabolized	Compound metabolized	Compound metabolized
CNC(=C[N+](=O)[O-])NCCSCc1ccc(CN(C)C)o1 [RANITIDINE]	Compound metabolized	Compound metabolized		Compound metabolized			Compound metabolized	Compound metabolized	Compound metabolized	Compound metabolized	Compound metabolized	Compound NOT metabolized	Compound metabolized	Compound NOT metabolized	Compound NOT metabolized	Compound NOT metabolized	Compound NOT metabolized	Compound metabolized	Compound metabolized	Compound metabolized
COc1ccc2[nH]c([S+]([O-])Cc3ncc(C)c(OC)c3C)nc2n1 (stereo unspecified) [TENATOPRAZOLE]	Compound metabolized	Compound metabolized	Compound metabolized	Compound metabolized	Compound metabolized	Compound metabolized		Compound metabolized	Compound metabolized		Compound metabolized	Compound metabolized	Compound metabolized	Compound metabolized	Compound metabolized	Compound metabolized	Compound metabolized	Compound metabolized	Compound metabolized	Compound metabolized
